# Data from patent publication US10006044B2, “Soybean event SYHT04R and compositions and methods for detection thereof” (Syngenta Participations AG, priority 2010, dated 2018).
# What was measured:
# Type in all cases: in vivo, Glycine max
# event SYHT04R = experiment: Herbicide tolerance performance of transgenic seeds and progeny plants; details: from a population of about 90 transformants
# From the text: After plants became established in the soil and new growth appeared (˜1-2 weeks), plants were sampled and tested for the presence of desired transgene by TAQMAN® analysis using appropriate probes for the HPPD genes or promoters. Positive plants were transplanted into 4″ square pots containing Fafard #3 soil. Sierra 17-6-12 slow release fertilizer was incorporated into the soil at the recommended rate. The plants were then relocated into a standard greenhouse to acclimatize (˜1 week). The environmental conditions were: 27° C. day; 21° C. night; 14 hour photoperiod (with supplemental light); ambient humidity. After acclimatizing (˜1 week), the plants were sampled and tested in detail for the presence and copy number of inserted transgenes. Transgenic soybean plants were grown to maturity for T1 seed production. T1 plants were grown up, and after TAQMAN® analysis, homozygous plants were grown for seed production. Transgenic seeds and progeny plants were used to further evaluate their herbicide tolerance performance and molecular characteristics.
# [1] = test system: non-transgenic soybean line Jack; experiment: Field efficacy: leaf injury after mesotrione treatment, control line; details: 210 g ai/ha mesotrione at V2/V3 stage, % of leaves showing injury, 9 US locations
# Method: (§1) SYH[…] soybean plants were tested for efficacy against mesotrione in 9 locations in the United States. The non-transgenic soybean line Jack was used as a control. […]
# SYHT04R soybean plants = experiment: Field efficacy: leaf injury after mesotrione treatment, event SYHT04R; details: line SYHT04R; 210 g ai/ha mesotrione at V2/V3 stage; % of leaves showing injury; 9 US locations
# Method: as §1
# Soybean event SYHT04R = experiment: Yield of soybean event SYHT04R sprayed with mesotrione versus the event unsprayed; details: for average yield advantage versus unsprayed: SYHT04R in several elite soybean genotypes, additional replicated trials
# Method: This observation has been made during multiple seasons of replicated agronomic and efficacy trials conducted on the STYHT04R event in the genotype ‘Jack.’ In a representative study, SYHT04R was tested in twenty Midwestern locations.
compound,measurement,setting,value
CS(=O)(=O)c1ccc(C(=O)C2C(=O)CCCC2=O)c([N+](=O)[O-])c1 [mesotrione],mesotrione tolerance of the event,event SYHT04R,high level of mesotrione tolerance
same,% Injury 5-11 DAT,[1],57%
same,% Injury 14-21 DAT,[1],78%
same,% Injury 25-36 DAT,[1],72%
same,% Injury 5-11 DAT,SYHT04R soybean plants,19%
same,% Injury 14-21 DAT,SYHT04R soybean plants,10%
same,% Injury 25-36 DAT,SYHT04R soybean plants,4%
same,greater yield than the unsprayed event,"Soybean event SYHT04R; 2× application at early vegetative stage, separate study, ten locations",1.4 bushels per acre
same,greater yield than the unsprayed event,"Soybean event SYHT04R; 2× application at early vegetative stage, twenty Midwestern locations, genotype Jack",3.7 bushels per acre
same,greater yield than the unsprayed event,"Soybean event SYHT04R; 2× pre-emergence application, separate study, ten locations",3.1 bushels per acre
same,greater yield than the unsprayed event,"Soybean event SYHT04R; 2× pre-emergence application, twenty Midwestern locations, genotype Jack",4.9 bushels per acre
same,average yield advantage versus unsprayed,Soybean event SYHT04R; early post-emergence application,0.6 bushels per acre
same,average yield advantage versus unsprayed,Soybean event SYHT04R; pre-emergence application,1.1 bushels per acre
